Results reported in patent US9233092B2, “Compositions and methods for inhibiting gastric acid secretion using derivatives of small dicarboxylic acids in combination with PPI” (Vecta, Ltd., priority 2006, dated 2016).
Entries after “also recorded” stand apart in the source; their conditions may differ.

Legend:
gastric acid output = conditions: humans; Teyssen et al., J. Clin Invest. 1999; cited from earlier work
gastric acid secretion [1] = assay: Stimulation of gastric acid secretion after oral administration, pylorus ligated 60 min after dosing, acid output by NaOH titration; assay type: in vivo; conditions: rats, per os, SA 14.88 mg/kg, mS 16.65 mg/kg, dmS 17.65 mg/kg, gastric juice collected 30 min later
Procedure: Rats were administered (per os) with succinic acid (SA, 14.88 mg/kg), monomethylester of succinic acid (mS, 16.65 mg/kg) or dimethyl ester of succinic acid (dmS, 17.65 mg/kg) using gavage. 60 minutes later the rats were anesthetized with ketamine/domitor and the pylorus was ligated. Following additional 30 min, gastric juice was collected from the gastric lumen. Acid output was determined by titration with NaOH. Total acid output expressed in mEq HCl was calculated by multiplying the sample volume by the acid concentration. Results are expressed as means±SEM of 8 animals from each experimental group.

gastric acid secretion [2] = assay: Conscious pylorus-ligated rats: effect of succinates on the activity of pantoprazole on gastric acid secretion; assay type: in vivo; conditions: oral gavage, succinate (SA 14.88 mg/kg or dmS 17.65 mg/kg) given 30 min prior to pantoprazole, FIG. 2
Procedure: To further study the delayed or sustained enhancement effect of dimethyl ester of succinic acid on the activity of pantoprazole, an experimental model of conscious pylorus-ligated rats was used. This experimental model permits the analysis of the effect of drugs on gastric acid secretion in conscious animals and avoids the effect of anesthesia on gastric acid secretion. Pantoprazole alone ([…]) or in combination with succinic acid (SA, 14.88 mg/kg) or dimethyl ester of succinic acid (dmS, 17.65 mg/kg) were administered by oral gavage. The succinates were administered 30 min prior to the administration of pantoprazole in order to test the sustained or delayed effect of dimethyl ester of succinic acid compared to the non-derivatized succinic acid. 120 min post succinates administration, the animals were anesthetized using anesthetic gas machine for a short period (5 minutes) that is sufficient to perform the pylorus ligation procedure and to close the abdomen. The animals were then placed back into its cage for additional 110 min after which the animals were sacrificed. The ligature was placed around the esophagus, the stomach removed and gastric content was collected. Following centrifugation, the gastric output and the pH of the gastric juice samples was determined. Data is presented as mean±SEM of gastric output. The number of animals is 6-7 in each experimental group.

SMILES | stimulation of gastric acid output (gastric acid output) | gastric acid output (total acid output) (gastric acid secretion [1]; FIG. 1) | gastric acid output (total acid output) (gastric acid secretion [1]; FIG. 1, listed as succinic acid dimethyl ester) | enhancement of the effect of pantoprazole (PPI) on gastric acid output (gastric acid secretion [2])
O=C(O)/C=C\C(=O)O [Maleic acid] | powerful stimulants of gastric acid output |  |  | 
COC(=O)CCC(=O)OC [dmS, dimethyl ester of succinic acid] |  | effective in enhancing gastric output | capable of enhancing gastric acid output even after 60 minutes from dosing | capable of enhancing the activity of pantoprazole on gastric acid secretion; also recorded: capable of enhancing the effect of PPI on gastric acid output
COC(=O)CCC(=O)O [mS, monomethylester of succinic acid] |  | effective in enhancing gastric output |  | 
O=C(O)CCC(=O)O [SA, succinic acid, reference compound] | powerful stimulants of gastric acid output | did not show an effect |  | only dimethyl ester of succinic acid was capable of enhancing the effect of PPI
